# Target: T1, Human ENaC δ, β and γ subunit (Homo sapiens, UniProt P51168+P51170+P51172)
# T1 construct: expressed in transfected cells; host or cells: Xenopus laevis (African clawed frog) oocytes injected with cRNA
# T1 sequence (P51172 1-802): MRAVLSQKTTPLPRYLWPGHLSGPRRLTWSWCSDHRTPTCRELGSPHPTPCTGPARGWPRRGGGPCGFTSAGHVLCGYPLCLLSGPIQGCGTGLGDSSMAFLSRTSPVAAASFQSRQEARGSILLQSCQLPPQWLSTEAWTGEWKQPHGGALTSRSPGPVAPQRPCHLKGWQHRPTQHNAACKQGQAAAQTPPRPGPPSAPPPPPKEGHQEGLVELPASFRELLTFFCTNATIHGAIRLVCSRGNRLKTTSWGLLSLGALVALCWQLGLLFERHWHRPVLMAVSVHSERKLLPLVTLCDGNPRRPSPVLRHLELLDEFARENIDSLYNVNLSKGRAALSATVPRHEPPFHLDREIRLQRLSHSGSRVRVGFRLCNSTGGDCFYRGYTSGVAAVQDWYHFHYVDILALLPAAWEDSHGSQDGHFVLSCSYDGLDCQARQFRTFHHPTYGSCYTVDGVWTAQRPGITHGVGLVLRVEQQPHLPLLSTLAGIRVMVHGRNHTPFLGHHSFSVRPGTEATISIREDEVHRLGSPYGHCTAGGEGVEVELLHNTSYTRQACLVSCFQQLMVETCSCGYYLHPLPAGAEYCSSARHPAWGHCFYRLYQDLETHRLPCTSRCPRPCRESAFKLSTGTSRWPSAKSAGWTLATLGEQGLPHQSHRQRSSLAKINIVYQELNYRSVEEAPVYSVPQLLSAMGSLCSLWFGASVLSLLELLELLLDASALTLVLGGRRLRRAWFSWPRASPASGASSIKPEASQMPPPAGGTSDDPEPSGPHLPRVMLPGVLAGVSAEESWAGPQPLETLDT
# T1 sequence (P51168 1-640): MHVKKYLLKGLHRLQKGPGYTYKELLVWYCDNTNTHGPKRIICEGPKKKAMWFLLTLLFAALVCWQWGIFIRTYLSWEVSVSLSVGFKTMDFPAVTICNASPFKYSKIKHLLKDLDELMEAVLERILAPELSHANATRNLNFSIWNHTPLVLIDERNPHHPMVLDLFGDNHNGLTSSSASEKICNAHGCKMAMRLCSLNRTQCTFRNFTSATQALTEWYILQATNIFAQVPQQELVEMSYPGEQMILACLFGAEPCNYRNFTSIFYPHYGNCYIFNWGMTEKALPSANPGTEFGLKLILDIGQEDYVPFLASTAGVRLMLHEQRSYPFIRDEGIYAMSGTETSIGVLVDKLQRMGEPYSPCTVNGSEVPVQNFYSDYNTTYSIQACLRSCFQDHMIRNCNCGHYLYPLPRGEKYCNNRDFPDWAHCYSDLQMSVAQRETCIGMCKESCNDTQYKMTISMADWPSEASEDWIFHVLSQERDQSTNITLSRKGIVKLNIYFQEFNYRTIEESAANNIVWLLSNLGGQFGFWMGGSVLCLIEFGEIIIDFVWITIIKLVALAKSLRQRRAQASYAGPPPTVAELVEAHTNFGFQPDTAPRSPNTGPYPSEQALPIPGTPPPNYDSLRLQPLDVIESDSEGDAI
# T1 sequence (P51170 1-649): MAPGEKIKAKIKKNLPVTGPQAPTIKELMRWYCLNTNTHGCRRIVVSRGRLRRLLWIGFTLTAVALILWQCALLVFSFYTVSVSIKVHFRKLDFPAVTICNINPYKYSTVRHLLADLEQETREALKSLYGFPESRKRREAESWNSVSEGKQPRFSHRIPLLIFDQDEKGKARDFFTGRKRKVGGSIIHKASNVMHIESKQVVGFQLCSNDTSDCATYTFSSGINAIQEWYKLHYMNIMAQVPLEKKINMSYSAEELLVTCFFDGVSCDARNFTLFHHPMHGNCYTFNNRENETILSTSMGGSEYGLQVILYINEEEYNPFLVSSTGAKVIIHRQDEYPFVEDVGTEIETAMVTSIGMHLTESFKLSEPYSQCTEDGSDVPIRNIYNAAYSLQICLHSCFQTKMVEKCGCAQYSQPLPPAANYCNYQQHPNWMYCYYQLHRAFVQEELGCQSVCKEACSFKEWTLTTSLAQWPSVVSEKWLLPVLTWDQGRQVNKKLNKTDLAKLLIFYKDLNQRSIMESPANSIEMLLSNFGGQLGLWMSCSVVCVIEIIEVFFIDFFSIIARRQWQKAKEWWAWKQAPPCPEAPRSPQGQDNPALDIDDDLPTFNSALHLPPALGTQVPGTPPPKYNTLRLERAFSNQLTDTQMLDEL
# Assay: Measurement of ENaC activation potency (MED) in ENaC-expressing oocyte, Two Electrode Voltage Clamp
# Format: cell-based
# Details: minimum effective dose at which current started to increase; ENaC-expressing African clawed frog oocyte; smaller MED = higher ENaC activation potency
# Method: ENaC activation current value, namely, the inward current in ENaC-expressing oocyte was measured as follows.
# According to the method described in Motonao Nakamura, Takao Shimizu: Experiment of African clawed frog oocyte, Experimental Medicine Vol. 11, No. 3, 224-232 (1993), oocyte was collected from African clawed frog, […], and the current value was measured by a Two Electrode Voltage Clamp technique. In the present invention, ND96 (96 mM NaCl, 2 mM KCl, 1 mM MgCl2, 5 mM Hepes, 1.8 mM CaCl2, pH 7.6) was used instead of MBS buffer in the above-mentioned document. Injector NANOLITER 2000 manufactured by World Precision Instruments was used for microinjection, OpusXpress 6000A manufactured by Molecular Devices was used for current value measurement by a Two Electrode Voltage Clamp technique, and Clampfit 10.2 software manufactured by Molecular Devices was used for data analysis.
# Human ENaC δ, β and γ subunit genes shown by SEQ ID NOs: 1, 2 and 3, respectively, in the Sequence Listing were each cloned into a plasmid vector, and used as a template DNA for cRNA synthesis. cRNA was synthesized using MEGAscript kit manufactured by Ambion and according to the method of the manual of the manufacturer.
# A mixture of the same amount of ENaC […] cRNA (0.4 to 0.8 μg/μL), and β and γ subunits cRNA (0.4 μg/μL) was injected into the oocyte of African clawed frog at […] per oocyte, and the oocyte was cultured for 16 hr-72 hr. Thereafter, the oocyte was set on a measuring apparatus OpusXpress 6000A, the electrodes were inserted into the oocyte, the voltage was clamped at a level lower by −30 mV than the resting membrane potential by a Two Electrode Voltage Clamp technique, and the current value was measured.
# To measure the ENaC activation potency, oocyte was stimulated with each test compound, and the minimum effective dose (hereinafter to be abbreviated as MED) of the compound at the time point when the electric current started to increase was measured. In this case, whichever smaller value of the minimum effective dose of the stimulation compound that increased the current value by not less than 10%, and the minimum effective concentration of the compound that increased, by not less than 25%, the electric current increase value due to the stimulation by 5 μM capsazepine (CAS NO.: 138977-28-3), as compared to the current value before addition of the compound and without stimulation, was taken as MED. A smaller MED means higher ENaC activation potency.
# Each test compound was directly dissolved in ND96, or first dissolved in dimethyl sulfoxide (DMSO) to 100 mM, and then prepared by diluting the solution with ND96 to a concentration used for the evaluation. The concentration of the test compound in ND96 was prepared to various concentrations within the range of 0.1 nM to 300 μm.
# ND96 as a perfusion fluid was flown at a rate of 0.5 mL/min through the measuring apparatus OpusXpress 6000A on which ENaC-expressing oocyte was set, the perfusion fluid was temporarily stopped every 3 minutes to add a test compound solution (0.25 mL) dissolved in ND96 at a rate of 0.5 mL/min. In this way, the test compound was contacted with ENaC-expressing oocyte, and whether ENaC is activated by the compound was examined by measuring the current value. After addition of the test compound, feeding of the perfusion fluid was resumed to wash away the compound to be ready for the next addition of the compound.
# The compound was added successively from a low concentration to a high concentration to stimulate ENaC-expressing oocyte. The concentrations actually added was, for example, 1 nM, 3 nM, 10 nM, 30 nM, 100 nM, 300 nM; 1 μM, 3 μM, 10 μm, 30 μm, 100 μm, 300 μm; 1.2 μM, 6 μM, 30 μm, 150 μm of one test compound. The compound was added from low concentrations to high concentrations at 3 min intervals. […]
row,MED [µM],SMILES
1,3,COC(=O)c1cc(O)ccc1NC(=S)N(C)CCc1ccccc1 [Example 119]
2,1,"CN(Cc1ccc(O)c(O)c1)C(=S)NCCc1ccccc1 [Example 42, 1-(3,4-dihydroxybenzyl)-1-methyl-3-(2-phenylethyl)thiourea]"
3,3,Oc1ccc(CCNC(=S)NCc2ccccc2)cc1 [Example 17]
4,0.3,C[C@@H](NC(=S)N[C@H](Cc1ccccc1)C(=O)O)c1cccc(O)c1 [Example 107]
5,30,S=C(NCCc1ccccc1)N(Cc1ccccc1)Cc1ccccc1 [Example 22]
6,0.06,"C[C@@H](NC(=S)NCCc1ccccc1O)c1cccc(O)c1 [Example 89, 1-[2-(2-hydroxyphenyl)ethyl]-3-[(R)-1-(3-hydroxyphenyl)ethyl]thiourea]"
7,10,S=C(CCc1ccccc1)NCCc1ccccc1 [Example 81]
8,10,"CC(C)(C)OC(=O)Nc1cccc(CNC(=S)NCCc2ccccc2)c1 [Example 78, tert-butyl 3-{[3-(2-phenylethyl)thioureido]methyl}phenylcarbamate]"
9,3,OC[C@H](NC(=S)NCCc1ccccc1)c1ccccc1 [Example 50]
10,5,"Oc1ccc(NC(=S)NCCc2ccccc2)cc1O [Example 47, 1-(3,4-dihydroxyphenyl)-3-(2-phenylethyl)thiourea]"
11,30,S=C(NCCc1ccc(Cl)cc1)NCCc1c[nH]c2ccccc12 [Example 6]
12,0.06 to 0.1,C[C@@H](NC(=S)NCC(O)c1cc(Cl)ccc1O)c1cccc(O)c1 (stereo partly shown) [Example 115]
13,1,S=C(NCCc1ccccc1)NCc1ccccc1 [Example 8]
14,1,ON(Cc1ccccc1)C(=S)NCCc1ccccc1 [Example 69]
15,30,OCCNC(=S)NCc1ccccc1 [Example 15]
16,1,COC[C@@H](NC(=S)NCCc1ccccc1)c1ccccc1 [Example 75]
17,10,"S=C(CCCc1ccccc1)NCc1ccccc1 [Example 80, N-benzyl-4-phenylbutanethioamide]"
18,30,COc1cc2c(cc1OC)CN(C(=S)NCCc1ccccc1)CC2 [Example 4]
19,0.06 to 0.1,"C[C@@H](NC(=S)NCC(O)c1ccccc1O)c1cccc(O)c1 (stereo partly drawn) [Example 105, 1-[2-(2-hydroxyphenyl)-2-hydroxyethyl]-3-[(R)-1-(3-hydroxyphenyl)ethyl]thiourea]"

row,MED [µM],SMILES
1,0.06 to 0.1,"C[C@@H](NC(=S)NCCc1ccccc1C(=O)O)c1cccc(O)c1 [Example 125, 2-(2-{3-[(R)-1-(3-hydroxyphenyl)ethyl]thioureido}ethyl)benzoic acid]"
2,1,"Nc1cccc(CNC(=S)NCCc2ccccc2)c1 [Example 79, 1-(3-aminobenzyl)-3-(2-phenylethyl)thiourea]"
3,0.1,CN(CCc1ccccc1)C(=S)Nc1ccccc1C(=O)O [Example 38]
4,3,Oc1ccc(CNC(=S)Nc2ccccc2)cc1O [Example 46]
5,1,O[C@H](CNC(=S)NCc1ccccc1)c1ccccc1 [Example 72]
6,10,S=C(NCCc1ccccc1)N[C@H](COCc1ccccc1)c1ccccc1 [Example 76]
7,1.1,Oc1ccccc1CCNC(=S)NCc1ccccc1 [Example 62]
8,30,O=[N+]([O-])c1ccc(CNC(=S)NCCc2ccccc2)cc1 [Example 64]
9,30,FC(F)(F)c1ccc(CNC(=S)NCCc2ccccc2)cc1 [Example 30]
10,1,Oc1ccc(CNC(=S)NCCc2ccc(Cl)cc2)cc1O [Example 1]
11,1,Oc1cccc(CNC(=S)NCCc2ccccc2)c1 [Example 44]
12,3,S=C(NCCc1ccccn1)NCc1ccccc1 [Example 14]
13,1,OC(CNC(=S)NCc1ccccc1)c1ccccc1 (stereo not shown) [Example 54]
14,1,Oc1ccc(CNC(=S)NCCc2ccccc2)cc1 [Example 43]
15,1,COC(CNC(=S)NCc1ccccc1)c1ccccc1 (stereo not shown) [Example 77]
16,0.1,C[C@@H](NC(=S)NCC(O)c1cc(O)ccc1O)c1cccc(O)c1 (stereo partly shown) [Example 112]
17,3.3,S=C(NCCc1ccccc1)NCc1ccc2c(c1)OCO2 [Example 26]
18,0.3,C[C@@H](NC(=S)N[C@H](Cc1ccc(O)cc1)C(=O)O)c1cccc(O)c1 [Example 109]

# Source: patent publication US20140004243A1, “SALTY TASTE ENHANCER” (AJINOMOTO CO., INC., priority 2011, published 2014)
